“Also recorded” adds a separate entry of the source. Square brackets hold non-standard residues; d marks the D form. Ends that are not written are not given here. dOrn = NCCC[C@@H](N)C(=O)O
System: microorganisms (e.g., bacteria, yeasts, fungi)
Test: Targeting peptide binding to target microorganisms (Table 3)
Settings: data not shown

Substance	bacterial binding
DAANEA [BL-1]	no bacterial binding

Same assay, conditions: microorganism the targeting peptide binds; binding in aqueous buffers varied by peptide solubility, preferably 1x PBS

Substance	Target(s)
1T-266 (RAGTWLVVDEIR; Peptide with targeting and/or antimicrobial activity) [Peptide 1T-266]	S. sanguinis
1T-267 (RIKEERKNRSYKFFIWRLFDEKTGFI; Peptide with targeting and/or antimicrobial activity) [Peptide 1T-267]	A. naeslundii; also recorded: F. nucleatum; also recorded: P. gingivalis; also recorded: T. denticola; also recorded: S. mitis; also recorded: S. mutans; also recorded: S. oralis; also recorded: S. sanguinis
1T-268 (PITPKKEKCGLGTYAPKNPVFSKSRV; Peptide with targeting and/or antimicrobial activity) [Peptide 1T-268]	F. nucleatum; also recorded: S. mutans; also recorded: S. oralis; also recorded: S. sanguinis
1T-269 (PLYVAAVEKINTAKKH; Peptide with targeting and/or antimicrobial activity) [Peptide 1T-269]	F. nucleatum; also recorded: S. mutans; also recorded: S. oralis; also recorded: S. sanguinis
1T-270 (VHEFDIQKILQNR; Peptide with targeting and/or antimicrobial activity) [Peptide 1T-270]	F. nucleatum; also recorded: S. mutans; also recorded: S. oralis; also recorded: S. sanguinis
1T-272 (QLAPIDKQLKAVKKIAFYESESTAAKAVTVA; Peptide with targeting and/or antimicrobial activity) [Peptide 1T-272]	F. nucleatum; also recorded: S. mutans; also recorded: S. oralis; also recorded: S. sanguinis
1T-273 (YNEPNYKWLESYKIYKQRCEDRTGMYYTEET; Peptide with targeting and/or antimicrobial activity) [Peptide 1T-273]	F. nucleatum; also recorded: P. gingivalis; also recorded: T. denticola; also recorded: S. mitis; also recorded: S. mutans; also recorded: S. oralis
1T-274 (ETTTEINAIKLHRIKQRSPQGTRRVN; Peptide with targeting and/or antimicrobial activity) [Peptide 1T-274]	F. nucleatum; also recorded: S. mutans; also recorded: S. oralis; also recorded: S. sanguinis
1T-282 (ISLVFPAYT; Peptide with targeting and/or antimicrobial activity) [Peptide 1T-282]	F. nucleatum; also recorded: P. gingivalis; also recorded: S. gordonii; also recorded: S. mitis; also recorded: S. mutans; also recorded: S. oralis; also recorded: S. salivarious; also recorded: S. sanguinis
1T-286 (LGFFNNKADLVKADTERDNRMSSLKIKDL; Peptide with targeting and/or antimicrobial activity) [Peptide 1T-286]	S. sanguinis
1T-287 (KGYPLPFQYRLNNH; Peptide with targeting and/or antimicrobial activity) [Peptide 1T-287]	P. gingivalis; also recorded: T. denticola; also recorded: S. gordonii; also recorded: S. mitis; also recorded: S. mutans; also recorded: S. oralis; also recorded: S. salivarious; also recorded: S. sanguinis
1T-288 (RWVGGEPSADIYLSAKDTKT; Peptide with targeting and/or antimicrobial activity) [Peptide 1T-288]	F. nucleatum; also recorded: S. gordonii; also recorded: S. salivarious; also recorded: S. sanguinis
1T-289 (EPSADIYLSAKDTKT; Peptide with targeting and/or antimicrobial activity) [Peptide 1T-289]	F. nucleatum; also recorded: P. gingivalis; also recorded: S. gordonii; also recorded: S. mitis; also recorded: S. mutans; also recorded: S. oralis; also recorded: S. sanguinis
1T-291 (DMKIIKLYIKILSFLFIKYCNKKLNSVKLKA; Peptide with targeting and/or antimicrobial activity) [Peptide 1T-291]	A. naeslundii; also recorded: F. nucleatum; also recorded: P. gingivalis; also recorded: T. denticola; also recorded: S. mitis; also recorded: S. mutans; also recorded: S. oralis
1T-294 (YDKIADGVFKIGKRGVL; Peptide with targeting and/or antimicrobial activity) [Peptide 1T-294]	T. denticola
1T-295 (KYKLKKIIL; Peptide with targeting and/or antimicrobial activity) [Peptide 1T-295]	S. mitis; also recorded: S. salivarious; also recorded: S. sanguinis

Substance	Target(s)
1T-297 (RSLRLNNALTKLPKLWYNRIKEAFYAYNDYDK; Peptide with targeting and/or antimicrobial activity) [Peptide 1T-297]	A. naeslundii; also recorded: F. nucleatum; also recorded: T. denticola; also recorded: S. mitis; also recorded: S. mutans; also recorded: S. oralis
1T-301 (SKLPRVLDASLKL; Peptide with targeting and/or antimicrobial activity) [Peptide 1T-301]	F. nucleatum; also recorded: S. gordonii; also recorded: S. sanguinis
1T-304 (STAGEASRRTASEASRRTAAKLRG; Peptide with targeting and/or antimicrobial activity) [Peptide 1T-304]	P. gingivalis
CHA0 (D[dOrn]KTAA[dOrn]K; not fully specified (bridges))	P. fluorescens
PF-014 (HPTDNKHN; Peptide with targeting and/or antimicrobial activity)	E. coli; also recorded: C. jeikeium
PF-016 (RKQYDDLSFNFLY; Peptide with targeting and/or antimicrobial activity)	S. epidermidis; also recorded: E. faecalis; also recorded: C. jeikeium
PF-018 (YYKTYFKEV; Peptide with targeting and/or antimicrobial activity)	E. coli; also recorded: C. jeikeium
PF-038 (MAYKDEGKETKFAVKGYKD; Peptide with targeting and/or antimicrobial activity)	M. luteus
PF-039 (MLEEKNKSL; Peptide with targeting and/or antimicrobial activity)	P. mirabilis; also recorded: C. jeikeium
PF-044 (KLKKYIHKPD; Peptide with targeting and/or antimicrobial activity)	S. epidermidis and M. luteus and MRSA and C. jeikeium
PF-047 (NQEPSLQQDKEQKDNKG; Peptide with targeting and/or antimicrobial activity)	S. mutans
PF-050 (SYYLKRREEKGK; Peptide with targeting and/or antimicrobial activity)	S. epidermidis; also recorded: M. luteus; also recorded: E. coli; also recorded: C. jeikeium
PF-054 (VSISRFIGGGHVFNGNNKRNL; Peptide with targeting and/or antimicrobial activity)	S. epidermidis; also recorded: E. coli
PF-055 (GHVFNGNNKRNL; Peptide with targeting and/or antimicrobial activity)	S. mutans
PF-060 (HSSHL; Peptide with targeting and/or antimicrobial activity)	E. coli; also recorded: C. albicans; also recorded: C. jeikeium
PF-062 (MKKKRINNDILGRMIYSSSIDKRNLYNLKYYE; Peptide with targeting and/or antimicrobial activity)	S. epidermidis and M. luteus and E. coli and P. aeruginosa and MRSA and S. pneumoniae and E. faecalis and C. jeikeium

Same assay, conditions: microorganism(s) the targeting peptide binds; binding in aqueous buffers depending on peptide solubility, preferably 1x PBS

Substance	Target(s)
AIEGVIKKGACFKLLRHEMF [PF-167]	S. epidermidis and E. coli and C. albicans and MRSA and C. jeikeium and C. jejuni
HIKETR (Peptide with targeting and/or antimicrobial activity) [PF-222]	S. epidermidis
MKKLVAALAVIVILTGCVYDPVNYDKIHDQEFQDHLRQNG [PF-252]	S. mutans
MLTSRKKRLKKIVEEQNKKDESI [PF-336]	S. mutans; also recorded: E. coli
PF-097 (QPTQGEQGTRPRRPTPMRGLLI; Peptide with targeting and/or antimicrobial activity)	C. jeikeium
PF-101 (DPVPERQEQACACHRTAKPGK; Peptide with targeting and/or antimicrobial activity)	S. mutans
PF-104 (ERTAVNDLWI; Peptide with targeting and/or antimicrobial activity)	MRSA and C. jeikeium
PF-130 (LQRSDEESMPRRHEKYS; Peptide with targeting and/or antimicrobial activity)	E. faecalis; also recorded: C. jeikeium; also recorded: C. jejuni
PF-131 (RRAAARTKGNRR; Peptide with targeting and/or antimicrobial activity)	S. epidermidis and E. coli and MRSA and C. jeikeium
PF-132 (RPGDGAAEQGRSR; Peptide with targeting and/or antimicrobial activity)	S. epidermidis; also recorded: C. jeikeium
PF-134 (GKAMKRQDCSAL; Peptide with targeting and/or antimicrobial activity)	S. epidermidis; also recorded: C. jeikeium
PF-138 (AVHHSLLFR; Peptide with targeting and/or antimicrobial activity)	S. epidermidis and M. luteus and P. mirabilis and E. coli and C. albicans and MRSA and C. jeikeium and C. jejuni
PF-141 (VVRRFQGM; Peptide with targeting and/or antimicrobial activity)	S. epidermidis and M. luteus and C. albicans and MRSA and C. jeikeium
PF-142 (GIDRGCQAAR; Peptide with targeting and/or antimicrobial activity)	S. mutans

Same assay, conditions: peptide binding in aqueous buffers varied by peptide solubility; preferably 1x PBS

Substance	Target(s) (microorganisms bound by the targeting peptide)
PEIIKIVSGLL [PF-758]	S. epidermidis and M. luteus and E. coli and MRSA and S. pneumoniae and E. faecalis and C. jeikeium
PF670 (TVIVAPMHSGV; Peptide with targeting and/or antimicrobial activity)	Mycobacteria spp

From US20110039762A1, “TARGETED ANTIMICROBIAL MOIETIES” (C3 JIAN, INC., priority 2009, published 2011)
